Assays:
[1] = comparison probe; cited from earlier work
[2] = Fluorescence response to various ROS (H2O2 selectivity); details: 20 mM HEPES, pH 7, 25° C.; for higher response for H2O2 over .OH: .OH from Fe2+ with H2O2; for higher response for H2O2 over .OtBu: .OtBu from Fe2+ with TBHP; for higher response for H2O2 over NO: NO delivered using SNOC
Experimental: (§1) FIG. 7 is the fluorescence response of 5 μM PF1 to various ROS (10 mM O2^−, 100 μM for all other ROS). .OH and .Ot-Bu were generated by reaction of Fe^2+ with H2O2 or tert-butyl hydroperoxide (TBHP), respectively. NO was delivered using S-nitrosocysteine (SNOC). Spectra were acquired in 20 mM HEPES, pH 7, and all data were obtained after incubation with the appropriate ROS at 25° C. for 1 h. Collected emission was integrated between 460 and 700 nm (λexc=450 nm).
FIG. 8 is the fluorescence response of 5 μM PR1 to various ROS (10 mM O2^−, 100 μM for all other ROS). .OH and .O^tBu were generated by reaction of Fe^2+ with H2O2 or tert-butyl hydroperoxide (TBHP), respectively. NO was delivered using S-nitrosocysteine (SNOC). Spectra were acquired in 20 mM HEPES, pH 7, and all data were obtained after incubation with the appropriate ROS at 25° C. for 30 min. Collected emission was integrated between 570 and 800 nm (λexc=560 nm).
as §1, with “FIG. 9” for “FIG. 7”, “of 10” for “of 5”, “μM PX1” for “μM PF1”, “between 370” for “between 460”, “and 600” for “and 700”, “nm (λexc=350” for “nm (λexc=450”
(§2) Millipore water was used to prepare all aqueous solutions. All spectroscopic measurements were performed in 20 mM HEPES buffer, pH 7. Absorption spectra were recorded using a Varian Cary 50 spectrophotometer (Walnut Creek, Calif.). Fluorescence spectra were recorded using a Photon Technology International Quanta Master 4 L-format scanning spectrofluorometer (Lawrenceville, N.J.) equipped with an LPS-220B 75-W xenon lamp and power supply, A-1010B lamp housing with integrated igniter, switchable 814 photon-counting/analog photomultiplier detection unit, and MD5020 motor driver. Samples for absorption and fluorescence measurements were contained in 1-cm×1-cm quartz cuvettes (1.4- or 3.5-mL volume, Starna, Atascadero, Calif.).
FIG. 7, FIG. 8 and FIG. 9 compare the relative reactivities of boronate-based PF1, PR1, and PX1, respectively, toward various ROS.

[3] = test system: HEK cells; test: Confocal fluorescence imaging of H2O2 in live HEK cells; details: for cell viability during imaging: HEK cells after probe incubation and H2O2 treatment; for intracellular background fluorescence of the unreacted probe: live HEK cells, 5-10 μM probe, 5-10 min at 25° C., before H2O2; for intracellular fluorescence change upon addition of H2O2: probe-loaded live HEK cells, 10-100 μM H2O2
Experimental: (a) Fluorescence image of HEK cells incubated with 5 μM PF1 for 5 min at 25° C. (b) Fluorescence image of PF1-stained HEK cells treated with 100 μM H2O2 for 11 min at 25° C. Excitation was provided at 488 nm, and emission was collected in a window from 505 to 580 nm. Scale bar=27 μm.
(a) Fluorescence image of HEK cells incubated with 10 μM PR1 for 10 min at 25° C. (b) Fluorescence image of PR1-stained HEK cells treated with 100 μM H2O2 for 30 min at 25° C. Excitation was provided at 543 nm, and emission was collected in a window from 548 to 644 nm. Scale bar=18 μm.
HEK 293T cells were cultured in Dulbecco's Modified Eagle Medium (DMEM, Invitrogen, Carlsbad, Calif.) supplemented with 10% Fetal Bovine Serum (FBS, Invitrogen), glutamine (2 mM), and penicillin/streptomycin (50 μg/ml, Invitrogen). One day before imaging, cells were passed and plated on 18-mm glass coverslips coated with poly-L-lysine (50 μg/ml, Sigma, St. Louis, Mo.). Immediately before the experiments, cells were washed with PBS buffer, incubated with the probe in PBS, and imaged.
Confocal fluorescence imaging was performed with a Zeiss LSM510 META laser scanning microscope containing an Axioplan 2 MOT upright microscope and a 40× water-immersion objective lens. Excitation of PF1-loaded cells at 488 nm was carried out with an argon ion laser, and emission was collected in a window from 505 nm to 580 nm using a META detection system. Excitation of PR1-loaded cells at 543 nm was carried out with a HeNe laser, and emission was collected in a window from 548 nm to 644 nm using a META detector. PF1 or PR1 were incubated with live cell samples for 5 to 10 min. Addition of H2O2 (10 to 100 μM) to cell samples was performed directly on the microscope stage by bath application to the media.
The family of red-, green-, and blue-fluorescent reagents for the optical detection of H2O2 in living biological samples.

[4] = test system: embryonic rat hippocampal neurons (E18); test: Fluorescence imaging of H2O2 in primary hippocampal neurons; format: cell-based
Experimental: Hippocampal primary cultures were prepared from embryonic day 18 (E18) rat embryos according to a previously reported protocol. Briefly, hippocampi were dissociated by treatment with trypsin for 20 min at 37° C. followed by washing. The neuronal cells were plated on glass coverslips (Carolina Biological, Burlington, N.C.) coated with poly-L-lysine (50 μg/ml, Sigma) and cultured in neurobasal medium supplemented with 2 mM Glutamax and 2% B-27 (Invitrogen). After 10 days in vitro, the cultures were washed with PBS, incubated with the probe in PBS, and imaged.
Finally, the successful use of the Peroxysensor probes for monitoring changes in intracellular H2O2 concentrations in mammalian cell lines using either confocal or two-photon microscopy led us to evaluate their utility in primary culture systems. […] Control neurons without PF1 and/or H2O2 treatment show no detectable fluorescence enhancements. These experiments confirm that PF1 can be used in living neurons to detect oxidative stress events.

[5] = Spectroscopic properties under simulated physiological conditions; format: physicochemical; details: 20 mM HEPES buffer; for fluorescence of unreacted probe: pH 7, before H2O2
Experimental: as §2
(§3) The Peroxysensor reagents were evaluated under simulated physiological conditions (20 mM HEPES buffer, pH 7). […] FIG. 4, FIG. 5 and FIG. 6 show the fluorescence responses of PF1, PR1, and PX1, respectively, to H2O2.

[6] = Fluorescence response of the Peroxysensor probes to H2O2 in buffer; details: 20 mM HEPES buffer, pH 7; H2O2 addition
Experimental: as §2, §3

[7] = test system: HEK cells; test: Two-photon fluorescence imaging of H2O2 in live HEK cells; format: cell-based
Experimental: Two-photon excitation was provided at 704 nm, and emission was collected in a window from 420 to 500 nm. Scale bar=18 μm
Two-photon fluorescence imaging of PX1 was carried out using an inverted Zeiss LSM510 Axiovert 200M microscope with a NeoFLUAR 40x/1.3 NA oil-immersion objective lens. Samples were excited by 704-nm pulses from a mode-locked Ti:Sapphire laser (Tsunami, SpectraPhysics, 120-150 fs pulse width, 80 MHz repetition rate). The emission light was filtered with a 80-nm wide bandpass filter centered at 460 nm (460BP40, Chroma) and detected with the non-descanned detector (NDD) of the LSM510.
Alternative methods were explored for applying the blue-fluorescent PX1 reporter toward intracellular H2O2 detection, reasoning that its short ultraviolet excitation maximum (˜350 nm) would promote interfering absorbance, scattering, and background autofluorescence from native cellular species. […] Whereas one-photon fluorescence microscopy uses a single photon to excite a fluorophore into its excited state, two-photon fluorescence microscopy uses two photons of lower energy light to generate a fluorophore excited state. […] Control cells without probe give the same fluorescence response, establishing that the observed background signal is from endogenous cellular species.

SMILES	higher response for H2O2 over .OH ([2]; 100 μM ROS) [fold]	higher response for H2O2 over .OtBu ([2]; 100 μM ROS) [fold]	cell viability during imaging [3]	intracellular background fluorescence of the unreacted probe [3]	intracellular fluorescence change upon addition of H2O2 [3]	fluorescence of unreacted probe [5]	higher response for H2O2 over NO ([2]; 100 μM ROS)	other results
O=C(O)c1ccccc1C1c2cc(Cl)c(O)cc2Oc2cc(O)c(Cl)cc21 [DCFH, 2′,7′-dichlorodihydrofluorescein]	–	–	–	–	–	–	–	fluorescence increase by reaction with .OH or peroxynitrite (ONOO−) [1]: ca. 7000 fold; fluorescence increase upon addition of H2O2 [1]: 190 fold; fluorescence increase upon light-induced autoxidation [1]: 2000 fold; fluorescence increase with NO [1]: 150 fold; fluorescence increase with O2− [1]: 67 fold
CC1(C)OB(c2ccc3c(c2)Oc2cc(B4OC(C)(C)C(C)(C)O4)ccc2C32OC(=O)c3ccccc32)OC1(C)C [PF1, 3′,6′-Bis(pinacolatoboron)fluoran]	> 3	> 15	cells are viable throughout the imaging experiments	negligible intracellular background fluorescence	prompt increases in intracellular green fluorescence	non-fluorescent	–	background fluorescence of the unreacted probe ([4]; 10 μM probe, 5 min at 25° C.): negligible background fluorescence; intracellular fluorescence change under simulated oxidative stress ([4]; 300 μM H2O2 for 30 min at 25° C.): notable increases in intracellular fluorescence
CC1(C)OB(c2ccc3c(c2)Oc2cc(B4OC(C)(C)C(C)(C)O4)ccc2N3)OC1(C)C [PR1, 3,7-Bis(pinacolatoboron)phenoxazine]	> 200	> 200	cells are viable throughout the experiments	virtually no background fluorescence	Striking increases in intracellular red fluorescence	non-fluorescent	> 200 fold	higher response for H2O2 over O2− ([2]; 10 mM O2−, 100 μM H2O2): > 1000 fold
CC1(C)OB(c2ccc3c(=O)c4ccc(B5OC(C)(C)C(C)(C)O5)cc4oc3c2)OC1(C)C [PX1, 3,6-Bis(pinacolatoboron)xanthone]	–	–	–	–	–	weak fluorescence	ca. 6 fold	increase in integrated fluorescence intensity (dynamic range) upon reaction with H2O2 [6]: 52 fold; higher response for H2O2 over tert-butyl hydroperoxide (TBHP) ([2]; 100 μM ROS): > 100 fold; intracellular background fluorescence of the unreacted probe ([7]; live HEK cells, 10 μM probe, 2-3 min at 25° C., two-photon excitation 704 nm): minimal intracellular background fluorescence; intracellular fluorescence change upon addition of H2O2 ([7]; probe-stained HEK cells, 100 μM H2O2, two-photon excitation 704 nm): Prompt increases in intracellular blue fluorescence; emission maximum of unreacted probe ([5]; pH 7): 400 nm; ultraviolet absorption maximum ([5]; pH 7): 350 nm; extinction coefficient ε at absorption maximum ([5]; pH 7, 350 nm): 4700 M⁻¹ cm⁻¹
